Experimental findings from patent publication US20250189516A1, “PHOSPHORYLATION OF P53 AS A PROGNOSTIC OR DIAGNOSTIC MARKER FOR THE TREATMENT OF SENESCENT CELLS IN A MAMMAL” (CLEARA BIOTECH B.V., priority 2022, published 2025) are described below.

Square brackets hold non-standard residues; d marks the D form. Ends that are not written are not given here.

The subject of test [1] is CRC29 colorectal cancer organoid line, liver metastases. Description: Colorectal cancer organoid CRC29 caecum implant model, liver metastasis (FIG. 9). It is filed as in vivo, immunodeficient mice. Particulars: 50 mg/kg 5-FU, 3 doses of 2.5 mg/kg CL04183, versus PBS. On the procedure: The colorectal cancer organoid line CRC29 was implanted in the caecum of immunodeficient mice. Two weeks after transplantation the animals were treated with either ‘5-Fluorouracil (5-FU) or PBS. […] A) The livers were stained for KU80 or human nucleoli to detect human cancer cells in the mouse organs, together with p-p53 (T55) or PML. B) The number of liver metastases per stained section was counted by eye.
Mouse experiments were performed after approval from the Dutch animal ethics committee (WP number 9124-1-03). NOD.Cg-Prkdcscid Il2rgtm1Wjl/SzJ/J mice were purchased from Charles River and maintained in a pathogen-free environment. The animals were anaesthetized using 75 mg/kg ketamine and 0.5 mg/kg dexmedetomidine injected i.p., while 5 mg/kg carprofen was injected s.c. as analgesia. Subsequently, CRC29 organoids (250000 cells) containing a firefly luciferase construct were transplanted into the caecum in a 10 μl collagen droplet. Two weeks after tumor cell implatation the animals were treated with either 50 mg/kg ‘5-Fluorouracil (5-FU) or PBS. […] Four weeks after transplantation, the mice were sacrificed, and tissues were collected for further processing.

The subject of test [2] is triple-negative breast cancer cell line MDAMB231. Description: Immunofluorescence of MDAMB231 cells surviving the LD50 dose (FIG. 13). It is filed as cell-based, human. Conditions: staining two days later, survivors have low PML and p53 (S392). On the procedure: A) The triple-negative breast cancer cell line MDAMB231 was treated with the LD50 dose, determined in previous assays. Two days later, an immunofluorescence staining was performed for the indicated proteins. B) Therapy-survivors are made up primarily of cells with low levels of these proteins.
(§1) To study the selectivity of different therapies for cancer cells, colorimetric-based cytotoxicity assays were performed two days following treatments. Cells from several different cancer types (breast, ovarian, pancreas, gastric lung and liver cancer) were cultured in 96-wells plates with 4000 cells per well. These were treated with a serial dilution of compounds in triplicates and mock-treatments ([…], since peptides were dissolved therein). The AQeousOne Solution Cell Proliferation Assay Kit was used to assess cell viability, according to the manufacturer's instructions. In short, the old medium was removed and 100 μl of fresh medium and 10 μl of CellTiter AQueousOne solution were added to each well. The plates were incubated for 1 hour at 37° C. The resulting colorimetric reactions were read at 490 nm on a Microplate Absorbance Reader. Relative survival was determined by normalization of the results to Mock (=100% alive). […]

Test [3] relates to MDA-MB-231 firefly luciferase-containing cells, metastases. Description: Anti-metastatic activity in vivo in an orthotopic TNBC model (FIG. 8). Details: species or system NSG mice. On the procedure:
PBS-treated mice developed metastatic growth visible by bioluminescence.
Approval for this study was obtained by the local University Animal Experimental Committee at the University Medical Center Utrecht (IVD-UMC; WP numbers 9124-1-02 and −05). MDA-MB-231 firefly luciferase-containing cells were transplanted orthotopically into the exposed inguinal mammary fat pad as single cells at a density of 1 millionn cells in 50 ul of a medium into NSG mice (NOD.Cg-PrkdcIL2rgmWij/Szj) (stock 005557). Carprofen was injected s.c. as analgesia following the surgery. Animals were purchased from Charles River and maintained in a pathogen-free environment.
Tumor growth dynamics were quantified in mice with established tumors (>50 mm3). […] After 2 weeks of recovery, mice were sacrificed. For in vivo dosing, the peptides were dissolved in PBS. We used 11 mice per group that were randomly assigned to the different treatment groups before the start of the experiment.
To visualize tumor burden in a live mouse, mice were injected with luciferin substrate i.p. at 150 mg/kg, and imaged under isoflurane anesthesia 15 min later using a bioluminescence imager. The M3Vision software was used to analyze the bioluminescence signal by taking a region of interest (ROI) around the primary tumor to evaluate the BL signal from the tumor or around the upper abdomen and chest of the mouse to evaluate the signal from metastases. The signal was measured in photons/s/cm2.

Test [4] has as its system human breast cancer cell lines. Nature of the test: MTS viability assay in human breast cancer cell lines versus number of PML bodies (FIG. 7). It is filed as cell-based. An excerpt: Spearman's rank correlation coefficient (0.93) given; B) Correlation of open P53 (Pab240 clone) and P53 pSer392 (EP155Y clone) staining in a panel of eight human breast cancer lines including luminal, Her2 positive and triple-negative. Spearman's rank correlation coefficient (0.88) given; and C) Association between PML body count/nuclear pixel (to correct for variation in nucleus size between lines) and nuclear P53 pSer392 staining intensity in eight human breast cancer lines plotted against the effective dose inducing cell death in 50% of the population (ED50, as measured by MTS assay) after treatment with CL04177 for these cell lines. Sensitive cell lines are highlighted by the box.
To study the selectivity of different therapies for cancer cells, colorimetric-based cytotoxicity assays were performed two days following treatments. […] The resulting colorimetric reactions were read at 490 nm on a Microplate Absorbance Reader. Relative survival was determined by normalization of the results to Mock (=100% alive). […]
Six days after treatment, cells were incubated with 10 μl CellTiter 96® AQueous One Solution Cell Proliferation Assay (Promega) for 1 hour at 37° C. to perform an MTS assay. Subsequently, absorbance was measured at 490 nm using a Spectramax M5e.
(Tetrazolium dyes change colour on reduction, which living cells bring about.)

For test [5], the system named is cancer cell lines with wildtype or "open" p53 conformation. Nature of the test: Viability curves / ED50 in cell lines from several types of cancer by p53 conformation (FIG. 14). Format: cell-based. Particulars: cancers with genetic mutations in p53, versus wildtype p53 conformation.
Excerpt: FIG. 14 The CL04177 peptide targets cells from multiple types of cancer, with a higher selectivity towards cell lines that are genetically predisposed towards expressing p53 in its “open” conformation through TP53 mutations. Viability curves exemplifying the response to the peptide for two cell lines, A) A2780 that has a wildtype p53 conformation and B) H23, which contains p53 with an “open” conformation based on genetic mutations in p53.
as §1

Test [6] has as its target p53-TAD2 phosphorylated at T55 or S46 (Homo sapiens, UniProt P04637). Description: Fluorescence anisotropy binding assay with FITC-labelled p53 peptides (FIG. 3). Particulars: versus non-phosphorylated p53-TAD2. On the procedure:
Data was acquired on a ClarioStar Plus plate reader. Endpoint measurement with 200 flashes per well were performed. An excitation filter with 482 nm wavelength and emission filter with 530 nm were used and gain adjustment as well as focal height adjustment were performed for each measurement. Fluorescence intensity, parallel fluorescence polarization and perpendicular fluorescence polarization were recorded. Data analysis was performed using MARS Version 3.4 (BMG), Microsoft Excel and GraphPad Prism Version 8.
For measurements, 116 μl of a solution of the specific Cleara peptides (ranging from 1 to 100 μM) were prepared. Subsequently 4 μl of FITC-labelled p53 peptides (stock concentration 15 μM, resulting in a final concentration of 500 nM) were added. 35 μl were then transferred in each well of the 384-well plate. Measurements were performed in triplicates. If necessary, this setup was extended with lower concentrations in order to cover strong interactions.
The anisotropy (r) is defined as the ratio of the polarized component to the total intensity (IT):
where the excitation is polarized along the z-axis, emission from the fluorophore is symmetric around the z-axis, so Ix=Iy and […], resulting in:
The obtained anisotropy values for each concentration of CL peptide can be used to determine the binding affinity, by applying following fitting function: […]

The mark [7] stands for this setting: daily s.c. for one week, 2.5 mg/kg CL04183, 10 mg/kg CL04177, versus PBS.

Chain of p53-TAD2 phosphorylated at T55 or S46 (P04637 37-57 limits assumed): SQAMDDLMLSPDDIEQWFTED

For `O=c1[nH]cc(F)c(=O)[nH]1` [5-FU, 5-Fluorouracil], the “effect on liver metastases” value in test [1] was “specifically counteract liver metastases”.
With “RKKASSKIEAEILDAFSQNWRRKRPPRRRQRRKKRG ([dR][dK][dK][dA][dS][dS][dK][dI][dE][dA][dE][dI][dL][dD][dA][dF][dS][dQ][dN][dW][dR][dR][dK][dR][dP][dP][dR][dR][dR][dQ][dR][dR][dK][dK][dR]G; listed as Homo sapiens) [CL04177, retro-inverso peptide derived from human FOXO4]”, the cell population targeted entry in test [2] was “targets cells with increased PML bodies and phosphorylated p53”. In test [3] (FIG. 8), the “effect on liver metastases” value is “specifically counteract liver metastases”. In test [3] (setting [7]), the “incidence of liver metastasis (bioluminescence of tumor cells in the extracted livers)” value was “decreased the incidence of liver metastasis” and the “incidence of visible metastasis (bioluminescence)” value is reported as “decreased the incidence of visible metastasis”. For the same molecule, in test [4] (breast cancer lines with few PML bodies), the “sensitivity of cell lines to the peptide” value is given as “less sensitive”. Besides, the “sensitivity of cell lines to the peptide” value in test [4] (triple-negative lines with high levels of PML bodies) is on record as “highly sensitive”. Moreover, in test [5], the “sensitivity (ED50s) of cancers predisposed towards "open" p53” value is on record as “more sensitive”.

B1: FOXO4: fragment of human FOXO4 (Uniprot ID P98177) from amino acid 86 to 207, recombinant forkhead domain (protein)
chain: GAVTGPRKGGSRRNAWGNQSYAELISQAIESAPEKRLTLAQIYEWMVRTVPYFKDKGDSNSSAGWKNSIRHNLSLHSKFIKVHNEATGKSSWWMLNPEGGKSGKAPRRRAASMDSSSKLLRG
In the case of B1, the “affinity to p53-TAD2 when phosphorylated at T55 or S46” value in test [6] is reported as “substantially higher affinity”.
